Test results as given in the NIST ThermoML archive (doi:10.1021/acs.jced.7b00347).

Experiment: mn = molality of the nth substance listed, in mol/kg
Settings: for surface tension liquid-gas: Ring tensiometer; for electrical conductivity: 100 kPa, Liquid, Alternating current cell with electrodes

CCCCCCCCCCCC[NH+](CCO)CC(C)O.[Cl-] (stereo not drawn) + O
Settings	electrical conductivity [S/m]	surface tension liquid-gas [mN/m]
293.15 K, m1 = 1.54e-05	0.00031	–
293.15 K, m1 = 1.543e-05	–	59.21
293.15 K, m1 = 3.087e-05	–	52.72
293.15 K, m1 = 3.859e-05	–	50.31
293.15 K, m1 = 3.95e-05	0.00039	–
293.15 K, m1 = 6.35e-05	0.00047	–
293.15 K, m1 = 7.717e-05	–	44.02
293.15 K, m1 = 8.75e-05	0.000551	–
293.15 K, m1 = 0.0001116	0.000631	–
293.15 K, m1 = 0.0001356	0.000711	–
293.15 K, m1 = 0.0001544	–	37.72
293.15 K, m1 = 0.0001596	0.000791	–
293.15 K, m1 = 0.0001837	0.000872	–
293.15 K, m1 = 0.0002077	0.000952	–
293.15 K, m1 = 0.0002315	–	34.11
293.15 K, m1 = 0.0002317	0.00103	–
293.15 K, m1 = 0.0002558	0.00111	–
293.15 K, m1 = 0.0002798	0.00119	–
293.15 K, m1 = 0.0003038	0.00127	–
293.15 K, m1 = 0.0003087	–	31.52
293.15 K, m1 = 0.0003279	0.00135	–
293.15 K, m1 = 0.0003519	0.00144	30.47
293.15 K, m1 = 0.0003819	0.00148	–
293.15 K, m1 = 0.0004119	0.00153	–
293.15 K, m1 = 0.0004419	0.00159	–
293.15 K, m1 = 0.0004719	0.00163	–
293.15 K, m1 = 0.0005018	0.00169	–
293.15 K, m1 = 0.0005318	0.00174	–
293.15 K, m1 = 0.0005618	0.00179	–
293.15 K, m1 = 0.0005918	0.00184	–
293.15 K, m1 = 0.0006218	0.00189	–
293.15 K, m1 = 0.0006518	0.00194	–
293.15 K, m1 = 0.0006818	0.00199	–
293.15 K, m1 = 0.0007118	0.00204	–
293.15 K, m1 = 0.0007417	0.00209	–
293.15 K, m1 = 0.0007717	0.00214	30.03
293.15 K, m1 = 0.001543	–	29.53
293.15 K, m1 = 0.002315	–	29.53
298.15 K, m1 = 1.54e-05	0.00041	–
298.15 K, m1 = 1.543e-05	–	54.03
298.15 K, m1 = 3.087e-05	–	48.02
298.15 K, m1 = 3.51e-05	0.000488	–
298.15 K, m1 = 3.859e-05	–	45.91
298.15 K, m1 = 5.47e-05	0.000565	–
298.15 K, m1 = 7.43e-05	0.000643	–
298.15 K, m1 = 7.717e-05	–	40
298.15 K, m1 = 9.39e-05	0.000721	–
298.15 K, m1 = 0.0001136	0.000798	–
298.15 K, m1 = 0.0001332	0.000876	–
298.15 K, m1 = 0.0001528	0.000954	–
298.15 K, m1 = 0.0001544	–	34.51
298.15 K, m1 = 0.0001724	0.00103	–
298.15 K, m1 = 0.000192	0.00111	–
298.15 K, m1 = 0.0002117	0.00119	–
298.15 K, m1 = 0.0002313	0.00127	–
298.15 K, m1 = 0.0002315	–	31.42
298.15 K, m1 = 0.0002509	0.00134	–
298.15 K, m1 = 0.0002705	0.00142	–
298.15 K, m1 = 0.0002902	0.0015	–
298.15 K, m1 = 0.0002932	–	29.91
298.15 K, m1 = 0.0003155	0.00156	–
298.15 K, m1 = 0.0003409	0.00161	–
298.15 K, m1 = 0.0003662	0.00167	–
298.15 K, m1 = 0.0003915	0.00173	–
298.15 K, m1 = 0.0004169	0.00179	–
298.15 K, m1 = 0.0004422	0.00185	–
298.15 K, m1 = 0.0004676	0.0019	–
298.15 K, m1 = 0.0004929	0.00196	–
298.15 K, m1 = 0.0005183	0.00202	–
298.15 K, m1 = 0.0005436	0.00208	–
298.15 K, m1 = 0.000569	0.00213	–
298.15 K, m1 = 0.0005943	0.00219	–
298.15 K, m1 = 0.0006197	0.00225	–
298.15 K, m1 = 0.000645	0.00231	–
298.15 K, m1 = 0.0006703	0.00236	–
298.15 K, m1 = 0.0006957	0.00242	–
298.15 K, m1 = 0.000721	0.00248	–
298.15 K, m1 = 0.0007464	0.00254	–
298.15 K, m1 = 0.0007717	0.0026	29.14
298.15 K, m1 = 0.001543	–	28.62
298.15 K, m1 = 0.002315	–	28.22
298.15 K, m1 = 0.003087	–	28.01
303.15 K, m1 = 1.08e-05	–	52.51
303.15 K, m1 = 1.543e-05	–	49.91
303.15 K, m1 = 3.087e-05	–	44.82
